Source: publication PMC10702309 (ACS Omega, 2023)
“Also recorded” adds a separate entry of the source. Read-outs that look alike come from different tables or passages of the source.

Legend:
jack bean urease [1] = biological target: T1, jack bean urease (Canavalia ensiformis, UniProt P07374); assay: Antiurease assay; type: biochemical; details: for % inhibition (urease): inhibitor concentration not given
jack bean urease [2] = biological target: T1, jack bean urease; assay: Enzyme kinetic studies; type: biochemical; details: for Vmax (app): at an inhibitor concentration of 20 μM; for mode of inhibition: urease, Lineweaver–Burk plots

T1 sequence (P07374 whole entry, looked up): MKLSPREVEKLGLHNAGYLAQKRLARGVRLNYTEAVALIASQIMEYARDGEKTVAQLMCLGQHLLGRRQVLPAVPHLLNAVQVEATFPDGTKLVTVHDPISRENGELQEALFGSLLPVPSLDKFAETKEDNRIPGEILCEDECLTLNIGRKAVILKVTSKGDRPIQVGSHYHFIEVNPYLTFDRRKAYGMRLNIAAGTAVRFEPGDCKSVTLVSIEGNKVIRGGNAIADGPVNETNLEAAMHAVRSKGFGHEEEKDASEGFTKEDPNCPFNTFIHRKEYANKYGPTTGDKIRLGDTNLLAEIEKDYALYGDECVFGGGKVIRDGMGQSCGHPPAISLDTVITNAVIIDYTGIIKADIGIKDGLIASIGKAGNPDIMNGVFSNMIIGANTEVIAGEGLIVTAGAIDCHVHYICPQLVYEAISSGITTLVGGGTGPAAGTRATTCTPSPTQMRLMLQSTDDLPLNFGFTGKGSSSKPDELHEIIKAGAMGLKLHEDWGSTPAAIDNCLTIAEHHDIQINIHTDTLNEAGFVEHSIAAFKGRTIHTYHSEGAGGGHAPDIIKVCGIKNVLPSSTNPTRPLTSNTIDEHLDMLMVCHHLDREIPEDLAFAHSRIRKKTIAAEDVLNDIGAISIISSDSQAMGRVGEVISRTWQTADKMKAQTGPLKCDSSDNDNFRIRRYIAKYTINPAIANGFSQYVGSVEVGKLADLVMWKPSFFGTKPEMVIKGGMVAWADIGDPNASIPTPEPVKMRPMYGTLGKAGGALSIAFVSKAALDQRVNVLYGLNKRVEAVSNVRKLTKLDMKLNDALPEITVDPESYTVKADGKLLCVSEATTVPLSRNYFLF

SMILES	IC50 (jack bean urease [1]) [µM]	% inhibition (urease) (jack bean urease [1]; jack bean urease) [%]	Ki (jack bean urease [2]) [µM]	Vmax (app) (jack bean urease [2]) [µM/min]	mode of inhibition (jack bean urease [2])	IC50 (jack bean urease [1]; read-out: IC50 (μM), mean ± SEM, jack bean urease, mean ± SEM) [µM]	Ki (jack bean urease [2]; read-out: Ki (inhibition constant), calculated from secondary Lineweaver–Burk plots) [µM]
O=C(Cc1ccccc1Nc1c(Cl)cccc1Cl)Nc1ccc(S(=O)(=O)Nc2ncccn2)cc1 [conjugate 7, 2-(2-((2,6-Dichlorophenyl)amino)phenyl)-N-(4-(N-(pyrimidin-2-yl)sulfamoyl)phenyl)acetamid]	30.49 ± 0.28	83.6	–	–	–	–	–
CC(=O)NS(=O)(=O)c1ccc(NC(=O)c2ccccc2Nc2cccc(C)c2C)cc1 [conjugate 18, N-(4-(N-Acetylsulfamoyl)phenyl)-2-((2,3-dimethylphenyl)amino)benzamide]	36.08 ± 0.28	64.1	–	–	–	–	–
Cc1cccc(Nc2ccccc2C(=O)Nc2ccc(S(N)(=O)=O)cc2)c1C [conjugate 12, 2-((2,3-Dimethylphenyl)amino)-N-(4-sulfamoylphenyl)benzamide]	18.7 ± 0.21	91.6	3.06	8.62	competitively; also recorded: competitive	–	–
Cc1cc(NS(=O)(=O)c2ccc(NC(=O)Cc3ccccc3Nc3c(Cl)cccc3Cl)cc2)no1 [conjugate 9, 2-(2-((2,6-Dichlorophenyl)amino)phenyl)-N-(4-(N-(5-methylisoxazol-3-yl)sulfamoyl)phenyl)acetamide]	33.34 ± 0.21	77.3	–	–	–	–	–
Cc1ccnc(NS(=O)(=O)c2ccc(NC(=O)c3ccccc3Nc3cccc(C)c3C)cc2)n1 [conjugate 16, 2-((2,3-Dimethylphenyl)amino)-N-(4-(N-(4-methylpyrimidin-2-yl)sulfamoyl)phenyl)benzamide]	94.99 ± 0.22	68.3	–	–	–	–	–
Cc1noc(NS(=O)(=O)c2ccc(NC(=O)Cc3ccccc3Nc3c(Cl)cccc3Cl)cc2)c1C [conjugate 5, 2-(2-((2,6-Dichlorophenyl)amino)phenyl)-N-(4-(N-(3,4-dimethylisoxazol-5-yl)sulfamoyl)phenyl)acetamide]	23.1 ± 0.49	73.4	–	–	–	–	–
Cc1cccc(Nc2ccccc2C(=O)Nc2ccc(S(=O)(=O)Nc3onc(C)c3C)cc2)c1C [conjugate 13, N-(4-(N-(3,4-Dimethylisoxazol-5-yl)sulfamoyl)phenyl)-2-((2,3-dimethylphenyl)amino)benzamide]	15.9 ± 0.25	94.1	4.82	3.03	mixed	–	–
Cc1cc(NS(=O)(=O)c2ccc(NC(=O)c3ccccc3Nc3cccc(C)c3C)cc2)no1 [conjugate 17, 2-((2,3-Dimethylphenyl)amino)-N-(4-(N-(5-methylisoxazol-3-yl)sulfamoyl)phenyl)benzamide]	8.35 ± 0.26	–	0.46	8.54	competitively; also recorded: competitive	–	–
NC(N)=S [thiourea, reference compound]	–	92.3	–	18.61	competitive	22.6 ± 0.23	18.2
CC(=O)NS(=O)(=O)c1ccc(NC(=O)Cc2ccccc2Nc2c(Cl)cccc2Cl)cc1 [conjugate 10, N-(4-(N-Acetylsulfamoyl)phenyl)-2-(2-((2,6-dichlorophenyl)amino)phenyl)acetamide]	5.49 ± 0.34	84.5	2.73	3.46	competitively; also recorded: competitive	–	–
Cc1cccc(Nc2ccccc2C(=O)Nc2ccc(S(=O)(=O)NC(=N)N)cc2)c1C [conjugate 19, N-(4-(N-Carbamimidoylsulfamoyl)phenyl)-2-((2,3-dimethylphenyl)amino)benzamide]	31.32 ± 0.29	79.2	–	–	–	–	–
O=C(Cc1ccccc1Nc1c(Cl)cccc1Cl)Nc1ccc(S(=O)(=O)Nc2nccs2)cc1 [conjugate 6, 2-(2-((2,6-Dichlorophenyl)amino)phenyl)-N-(4-(N-(thiazol-2-yl)sulfamoyl)phenyl)acetamide]	16.2 ± 0.21	71.3	16.3	0.755	mixed	–	–

Now from value to molecule, other results behind:

IC50 (jack bean urease [1]) [µM]	% inhibition (urease) (jack bean urease [1]; jack bean urease) [%]	Ki (jack bean urease [2]) [µM]	Vmax (app) (jack bean urease [2]) [µM/min]	mode of inhibition (jack bean urease [2])	SMILES	IC50 (jack bean urease [1]; read-out: IC50 (μM), mean ± SEM, jack bean urease, mean ± SEM) [µM]	Ki (jack bean urease [2]; read-out: Ki (inhibition constant), calculated from secondary Lineweaver–Burk plots) [µM]
14.8 ± 0.27	82.9	1.65	2.28	mixed	Cc1cccc(Nc2ccccc2C(=O)Nc2ccc(S(=O)(=O)Nc3nccs3)cc2)c1C [conjugate 14, 2-((2,3-Dimethylphenyl)amino)-N-(4-(N-(thiazol-2-yl)sulfamoyl)phenyl)benzamide]	–	–
9.5 ± 0.28	85.9	10.8	2.27	mixed	Cc1ccnc(NS(=O)(=O)c2ccc(NC(=O)Cc3ccccc3Nc3c(Cl)cccc3Cl)cc2)n1 [conjugate 8, 2-(2-((2,6-Dichlorophenyl)amino)phenyl)-N-(4-(N-(4-methylpyrimidin-2-yl)sulfamoyl)phenyl)acetamide]	–	–
7.92 ± 0.27	84.9	1.04	6.36	mixed	Cc1cccc(Nc2ccccc2C(=O)Nc2ccc(S(=O)(=O)Nc3ncccn3)cc2)c1C [conjugate 15, 2-((2,3-Dimethylphenyl)amino)-N-(4-(N-(pyrimidin-2-yl)sulfamoyl)phenyl)benzamide]	–	–
4.35 ± 0.23	78.7	1.09	1.11	mixed	N=C(N)NS(=O)(=O)c1ccc(NC(=O)Cc2ccccc2Nc2c(Cl)cccc2Cl)cc1 [conjugate 11, N-(4-(N-Carbamimidoylsulfamoyl)phenyl)-2-(2-((2,6-dichlorophenyl)amino)phenyl)acetamide]	–	–
